Data on 25 compounds can be found in patent US20170107229A1, “SUBSTITUTED TETRAHYDROPYRIDOTHIENOPYRIMIDINES” (BAYER PHARMA AKTIENGESELLSCHAFT, priority 2014, published 2017).

In this experiment the target is T1, human full-length MKNK1 (Homo sapiens, UniProt Q9BUB5, T385D).
T1 construct: GST (N); purchased Carna Biosciences 02-145; host or cells: insect cells (baculovirus expression system)
T1 sequence (Q9BUB5 1-424 isoform Q9BUB5-2 T344D): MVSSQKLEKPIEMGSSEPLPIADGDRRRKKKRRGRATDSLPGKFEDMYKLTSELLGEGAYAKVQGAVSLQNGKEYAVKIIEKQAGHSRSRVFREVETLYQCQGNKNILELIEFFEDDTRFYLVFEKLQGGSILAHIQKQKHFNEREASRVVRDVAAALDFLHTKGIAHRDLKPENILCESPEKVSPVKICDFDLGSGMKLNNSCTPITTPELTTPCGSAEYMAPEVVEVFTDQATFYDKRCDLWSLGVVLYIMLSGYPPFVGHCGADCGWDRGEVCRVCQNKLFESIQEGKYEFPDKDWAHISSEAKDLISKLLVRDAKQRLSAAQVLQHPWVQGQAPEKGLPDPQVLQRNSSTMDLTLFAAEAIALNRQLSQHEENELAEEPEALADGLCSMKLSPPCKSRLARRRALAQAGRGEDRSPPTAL
Put plainly: MKNK1 kinase high ATP assay (TR-FRET). In kind it is biochemical. Conditions: high ATP (2 mM final), 15 min preincubation with enzyme, GST-MKNK1 (T344D). How it is done:
MKNK1-inhibitory activity at high ATP of compounds of the present invention after their preincubation with MKNK1 was quantified employing the TR-FRET-based MKNK1 high ATP assay as described in the following paragraphs.
A recombinant fusion protein of Glutathione-S-Transferase (GST, N-terminally) and human full-length MKNK1 (amino acids 1-424 and T344D of accession number BAA 19885.1), expressed in insect cells using baculovirus expression system and purified via glutathione sepharose affinity chromatography, was purchased from Carna Biosciences (product no 02-145) and used as enzyme. As substrate for the kinase reaction the biotinylated peptide biotin-Ahx-IKKRKLTRRKSLKG (C-terminus in amide form) was used, which can be purchased e.g. from the company Biosyntan (Berlin-Buch, Germany).
For the assay 50 nL of a 100fold concentrated solution of the test compound in DMSO was pipetted into a black low volume 384well microtiter plate (Greiner Bio-One, Frickenhausen, Germany), 2 μL of a solution of MKNK1 in aqueous assay buffer [50 mM HEPES pH 7.5, 5 mM MgCl2, 1.0 mM dithiothreitol, 0.005% (v/v) Nonidet-P40 (Sigma)] was added and the mixture was incubated for 15 min at 22° C. to allow pre-binding of the test compounds to the enzyme before the start of the kinase reaction. Then the kinase reaction was started by the addition of 3 μL of a solution of adenosine-tri-phosphate (ATP, 3.3 mM=>final conc. in the 5 μL assay volume is 2 mM) and substrate (0.1 μM=>final conc. in the 5 μL assay volume is 0.06 μM) in assay buffer and the resulting mixture was incubated for a reaction time of 30 min at 22° C. The concentration of MKNK1 was adjusted depending of the activity of the enzyme lot and was chosen appropriate to have the assay in the linear range, typical concentrations were in the range of 0.003 μg/mL. The reaction was stopped by the addition of 5 μL of a solution of TR-FRET detection reagents (5 nM streptavidine-XL665 [Cisbio Bioassays, Codolet, France] and 1 nM anti-ribosomal protein S6 (pSer236)-antibody from Invitrogen [#44921G] and 1 nM LANCE EU-W1024 labeled ProteinG [Perkin-Elmer, product no. AD0071]) in an aqueous EDTA-solution (100 mM EDTA, 0.1% (w/v) bovine serum albumin in 50 mM HEPES pH 7.5).
The resulting mixture was incubated for 1 h at 22° C. to allow the formation of complex between the phosphorylated biotinylated peptide and the detection reagents. Subsequently the amount of phosphorylated substrate was evaluated by measurement of the resonance energy transfer from the Eu-chelate to the streptavidine-XL. Therefore, the fluorescence emissions at 620 nm and 665 nm after excitation at 350 nm were measured in a TR-FRET reader, e.g. a Rubystar (BMG Labtechnologies, Offenburg, Germany) or a Viewlux (Perkin-Elmer). The ratio of the emissions at 665 nm and at […] was taken as the measure for the amount of phosphorylated substrate. The data were normalised (enzyme reaction without inhibitor=0% inhibition, all other assay components but no enzyme=100% inhibition).
Turning to `CSc1cc2[nH]ncc2cc1Nc1ncnc2sc3c(c12)CCNC3` [Example 1, N-[6-(Methylsulfanyl)-1H-indazol-5-yl]-5,6,7,8-tetrahydropyrido[4′,3′:4,5]thieno[2,3-d]pyrimidin-4-amine], it took 24 nM to reach half-maximal inhibition (IC50).

As to `CSc1cc2[nH]ncc2cc1Nc1ncnc2sc3c(c12)CCN(C(=O)OC(C)(C)C)C3` [Example 2, tert-Butyl 4-{[6-(methylsulfanyl)-1H-indazol-5-yl]amino}-5,8-dihydropyrido[4′,3′:4,5]thieno[2,3-d]pyrimidine-7(6H)-carboxylate], it took 16 nM to reach half-maximal inhibition (IC50).

The compound `CC(C)(C)OC(=O)N1CCc2c(sc3ncnc(Nc4ccc5[nH]c(=O)sc5c4)c23)C1` [Example 3, tert-Butyl 4-[(2-oxo-2,3-dihydro-1,3-benzothiazol-6-yl)amino]-5,8-dihydropyrido[4′,3′:4,5]thieno[2,3-d]pyrimidine-7(6H)-carboxylate] registered an IC50 of 71 nM.

Regarding `COc1cc2[nH]ncc2cc1Nc1ncnc2sc3c(c12)CCN(C(=O)OC(C)(C)C)C3` [Example 4, tert-Butyl 4-[(6-methoxy-1H-indazol-5-yl)amino]-5,8-dihydropyrido[4′,3′:4,5]thieno[2,3-d]pyrimidine-7(6H)-carboxylate], 6 nM corresponded to half-maximal inhibition (IC50).

Take `CC(C)(C)OC(=O)N1CCc2c(sc3ncnc(Nc4ccc5[nH]ncc5c4)c23)C1` [Example 5, tert-Butyl 4-(1H-indazol-5-ylamino)-5,8-dihydropyrido[4′,3′:4,5]thieno[2,3-d]pyrimidine-7(6H)-carboxylate]: the concentration for half-maximal inhibition (IC50) came to 18 nM.

`CC(C)(C)OC(=O)N1CCc2c(sc3ncnc(Nc4cnc5[nH]ncc5c4)c23)C1` [Example 6, tert-Butyl 4-(1H-pyrazolo[3,4-b]pyridin-5-ylamino)-5,8-dihydropyrido[4′,3′:4,5]thieno[2,3-d]pyrimidine-7(6H)-carboxylate] gave an IC50 of 47 nM.

In turn, `CC(C)(C)OC(=O)N1CCc2c(sc3ncnc(Nc4cc5cn[nH]c5cn4)c23)C1` [Example 7, tert-Butyl 4-(1H-pyrazolo[3,4-c]pyridin-5-ylamino)-5,8-dihydropyrido[4′,3′:4,5]thieno[2,3-d]pyrimidine-7(6H)-carboxylate] gave an IC50 of 79 nM.

In turn, `COc1cc2[nH]ncc2cc1Nc1ncnc2sc3c(c12)CCNC3` [Example 8, N-(6-Methoxy-1H-indazol-5-yl)-5,6,7,8-tetrahydropyrido[4′,3′:4,5]thieno[2,3-d]pyrimidin-4-amine] yielded an IC50 of 13 nM.

In the case of `COc1cc2[nH]ncc2cc1Nc1ncnc2sc3c(c12)CCN(C(=O)CCCS(C)(=O)=O)C3` [Example 9, 1-{4-[(6-Methoxy-1H-indazol-5-yl)amino]-5,8-dihydropyrido[4′,3′:4,5]thieno[2,3-d]pyrimidin-7(6H)-yl}-4-(methylsulfonyl)butan-1-one], the IC50 turned out to be 2 nM.

For the compound `FC(F)(F)CN1CCc2c(sc3ncnc(Nc4cnc5[nH]ncc5c4)c23)C1` [Example 10, N-(1H-Pyrazolo[3,4-b]pyridin-5-yl)-7-(2,2,2-trifluoroethyl)-5,6,7,8-tetrahydropyrido[4′,3′:4,5]thieno[2,3-d]pyrimidin-4-amine], the IC50 turned out to be 79 nM.

The compound `CSc1cc2[nH]ncc2cc1Nc1ncnc2sc3c(c12)CCN(CC(F)(F)F)C3` [Example 11, N-[6-(Methylsulfanyl)-1H-indazol-5-yl]-7-(2,2,2-trifluoroethyl)-5,6,7,8-tetrahydropyrido[4′,3′:4,5]thieno[2,3-d]pyrimidin-4-amine] yielded an IC50 of 15 nM.

The compound `COc1cc2[nH]ncc2cc1Nc1ncnc2sc3c(c12)CCN(CC(F)(F)F)C3` [Example 12, N-(6-Methoxy-1H-indazol-5-yl)-7-(2,2,2-trifluoroethyl)-5,6,7,8-tetrahydropyrido[4′3′:4,5]thieno[2,3-d]pyrimidin-4-amine] gave an IC50 of 99 nM.

On to `CN(C)C(=O)N1CCc2c(sc3ncnc(Nc4cnc5[nH]ncc5c4)c23)C1` [Example 13, N,N-Dimethyl-4-(1H-pyrazolo[3,4-b]pyridin-5-ylamino)-5,8-dihydropyrido[4′,3′:4,5]thieno[2,3-d]pyrimidine-7(6H)-carboxamide], for which the IC50 turned out to be 48 nM.

In turn, `CN(C)C(=O)N1CCc2c(sc3ncnc(Nc4cc5cn[nH]c5cn4)c23)C1` [Example 14, N,N-Dimethyl-4-(1H-pyrazolo[3,4-c]pyridin-5-ylamino)-5,8-dihydropyrido[4′,3′:4,5]thieno[2,3-d]pyrimidine-7(6H)-carboxamide] registered an IC50 of 30 nM.

The compound `CN(C)C(=O)N1CCc2c(sc3ncnc(Nc4ccc5[nH]ncc5c4)c23)C1` [Example 15, 4-(1H-Indazol-5-ylamino)-N,N-dimethyl-5,8-dihydropyrido[4′,3′:4,5]thieno[2,3-d]pyrimidine-7(6H)-carboxamide] showed an IC50 of 32 nM.

As to `COc1cc2[nH]ncc2cc1Nc1ncnc2sc3c(c12)CCN(C(=O)N(C)C)C3` [Example 16, 4-[(6-Methoxy-1H-indazol-5-yl)amino]-N,N-dimethyl-5,8-dihydropyrido[4′,3′:4,5]thieno[2,3-d]pyrimidine-7(6H)-carboxamide], the IC50 is 4 nM.

Regarding `CN(C)C(=O)N1CCc2c(sc3ncnc(Nc4ccc5[nH]c(=O)sc5c4)c23)C1` [Example 17, N,N-Dimethyl-4-[(2-oxo-2,3-dihydro-1,3-benzothiazol-6-yl)amino]-5,8-dihydropyrido[4′,3′:4,5]thieno[2,3-d]pyrimidine-7(6H)-carboxamide], the IC50 came to 88 nM.

As for `CC(C)C(=O)N1CCc2c(sc3ncnc(Nc4ccc5[nH]c(=O)sc5c4)c23)C1` [Example 18, 6-[(7-Isobutyryl-5,6,7,8-tetrahydropyrido[4′,3′:4,5]thieno[2,3-d]pyrimidin-4-yl)amino]-1,3-benzothiazol-2(3H)-one], the IC50 turned out to be 113 nM.

For the compound `CC(C)C(=O)N1CCc2c(sc3ncnc(Nc4ccc5[nH]ncc5c4)c23)C1` [Example 19, 1-[4-(1H-indazol-5-ylamino)-5,8-dihydropyrido[4′,3′:4,5]thieno[2,3-d]pyrimidin-7(6H)-yl]-2-methylpropan-1-one], the IC50 stood at 15 nM.

With `CC(C)C(=O)N1CCc2c(sc3ncnc(Nc4cc5cn[nH]c5cn4)c23)C1` [Example 20, 2-Methyl-1-[4-(1H-pyrazolo[3,4-c]pyridin-5-ylamino)-5,8-dihydropyrido[4′,3′:4,5]thieno[2,3-d]pyrimidin-7(6H)-yl]propan-1-one], the IC50 is 28 nM.

Turning to `CC(C)C(=O)N1CCc2c(sc3ncnc(Nc4cnc5[nH]ncc5c4)c23)C1` [Example 21, 2-Methyl-1-[4-(1H-pyrazolo[3,4-b]pyridin-5-ylamino)-5,8-dihydropyrido[4′,3′:4,5]thieno[2,3-d]pyrimidin-7(6H)-yl]propan-1-one], the IC50 was determined as 40 nM.

For `COc1cc2[nH]ncc2cc1Nc1ncnc2sc3c(c12)CCN(C(=O)C(C)C)C3` [Example 22, 1-{4-[(6-Methoxy-1H-indazol-5-yl)amino]-5,8-dihydropyrido[4′,3′:4,5]thieno[2,3-d]pyrimidin-7(6H)-yl}-2-methylpropan-1-one], the IC50 came out at 4 nM.

For `CS(=O)(=O)N1CCc2c(sc3ncnc(Nc4cc5cn[nH]c5cn4)c23)C1` [Example 23, 7-(Methylsulfonyl)-N-(1H-pyrazolo[3,4-c]pyridin-5-yl)-5,6,7,8-tetrahydropyrido[4′,3′:4,5]thieno[2,3-d]pyrimidin-4-amine], the IC50 came out at 25 nM.

In turn, `O=C(N1CCOCC1)N1CCc2c(sc3ncnc(Nc4cc5cn[nH]c5cn4)c23)C1` [Example 24, Morpholin-4-yl[4-(1H-pyrazolo[3,4-c]pyridin-5-ylamino)-5,8-dihydropyrido[4′,3′:4,5]thieno[2,3-d]pyrimidin-7(6H)-yl]methanone] yielded an IC50 of 28 nM.

The compound `CC(C)(C)OC(=O)N1CCc2c(sc3ncnc(Nc4cc5cn[nH]c5cc4Br)c23)C1` [Example 25, tert-Butyl 4-[(6-bromo-1H-indazol-5-yl)amino]-5,8-dihydropyrido[4′,3′:4,5]thieno[2,3-d]pyrimidine-7(6H)-carboxylate] registered an IC50 of 31 nM.
